Data from ChEMBL document CHEMBL1201862, “PubChem BioAssay data set” (2004).
The source made the active and inactive calls.

Tests used:
[1] = blockers of CRF-binding protein–CRF-R2 complex – cell-based, uHTS hits, 384-well, dose response (AID 651639); type: functional, Homo sapiens; settings: read-out: IC50_Mean
[2] = target: T1, Corticotropin-releasing factor receptor 2/Corticotropin-releasing factor-binding protein (Homo sapiens, UniProt P24387+Q13324); assay: activators of CRF receptor 2 with binding protein – uHTS hits, confirmation (AID 602473); type: functional; settings: read-out: EC50_Mean
T1 sequence (Q13324 whole entry): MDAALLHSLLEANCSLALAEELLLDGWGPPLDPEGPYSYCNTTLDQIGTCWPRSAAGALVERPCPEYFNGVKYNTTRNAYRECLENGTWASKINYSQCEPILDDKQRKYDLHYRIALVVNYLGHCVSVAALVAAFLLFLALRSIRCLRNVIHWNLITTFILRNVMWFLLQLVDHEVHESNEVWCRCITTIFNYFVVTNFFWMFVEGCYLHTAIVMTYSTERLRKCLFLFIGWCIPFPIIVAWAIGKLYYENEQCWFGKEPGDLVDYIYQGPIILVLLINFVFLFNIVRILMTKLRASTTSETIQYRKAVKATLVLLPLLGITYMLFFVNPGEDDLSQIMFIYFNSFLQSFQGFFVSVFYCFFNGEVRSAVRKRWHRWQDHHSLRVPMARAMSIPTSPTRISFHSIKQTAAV
T1 sequence (P24387 whole entry): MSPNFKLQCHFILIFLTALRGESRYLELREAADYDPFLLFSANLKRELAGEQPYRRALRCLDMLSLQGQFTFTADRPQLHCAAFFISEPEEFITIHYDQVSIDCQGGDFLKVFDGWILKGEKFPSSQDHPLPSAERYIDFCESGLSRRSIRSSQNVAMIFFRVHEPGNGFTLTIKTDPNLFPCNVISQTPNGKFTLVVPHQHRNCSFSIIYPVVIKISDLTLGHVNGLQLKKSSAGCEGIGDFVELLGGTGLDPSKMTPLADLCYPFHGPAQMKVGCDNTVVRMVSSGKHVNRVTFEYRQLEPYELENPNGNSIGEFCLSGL

[3] = target: T1, Corticotropin-releasing factor receptor 2/Corticotropin-releasing factor-binding protein; assay: Dose Response confirmation of uHTS hits for small molecule antagonists of the CRF-binding protein and CRF-R2 receptor complex.; type: functional; settings: read-out: IC50_Mean
[4] = target: T2, Probable nicotinate-nucleotide adenylyltransferase (Staphylococcus aureus (strain N315), UniProt P65502); type: functional, Staphylococcus aureus subsp. aureus N315; settings: read-out: IC50_Mean;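 as to IC50 Mean: confirmatory dose-response retesting of NadD inhibitor hits first found in an ultra-high-throughput screen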
T2 sequence (P65502 whole entry): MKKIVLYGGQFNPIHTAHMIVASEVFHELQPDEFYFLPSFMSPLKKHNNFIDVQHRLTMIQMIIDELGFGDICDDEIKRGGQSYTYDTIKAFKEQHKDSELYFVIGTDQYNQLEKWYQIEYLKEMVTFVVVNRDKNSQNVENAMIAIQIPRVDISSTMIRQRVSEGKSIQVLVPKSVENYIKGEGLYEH

[5] = target: T2, Probable nicotinate-nucleotide adenylyltransferase; type: functional, Staphylococcus aureus subsp. aureus N315
[6] = target: T3, Methionyl-tRNA synthetase, putative (Trypanosoma brucei brucei, UniProt Q38C91); type: functional, Trypanosoma brucei brucei strain 927/4 GUTat10.1
T3 sequence (Q38C91 whole entry): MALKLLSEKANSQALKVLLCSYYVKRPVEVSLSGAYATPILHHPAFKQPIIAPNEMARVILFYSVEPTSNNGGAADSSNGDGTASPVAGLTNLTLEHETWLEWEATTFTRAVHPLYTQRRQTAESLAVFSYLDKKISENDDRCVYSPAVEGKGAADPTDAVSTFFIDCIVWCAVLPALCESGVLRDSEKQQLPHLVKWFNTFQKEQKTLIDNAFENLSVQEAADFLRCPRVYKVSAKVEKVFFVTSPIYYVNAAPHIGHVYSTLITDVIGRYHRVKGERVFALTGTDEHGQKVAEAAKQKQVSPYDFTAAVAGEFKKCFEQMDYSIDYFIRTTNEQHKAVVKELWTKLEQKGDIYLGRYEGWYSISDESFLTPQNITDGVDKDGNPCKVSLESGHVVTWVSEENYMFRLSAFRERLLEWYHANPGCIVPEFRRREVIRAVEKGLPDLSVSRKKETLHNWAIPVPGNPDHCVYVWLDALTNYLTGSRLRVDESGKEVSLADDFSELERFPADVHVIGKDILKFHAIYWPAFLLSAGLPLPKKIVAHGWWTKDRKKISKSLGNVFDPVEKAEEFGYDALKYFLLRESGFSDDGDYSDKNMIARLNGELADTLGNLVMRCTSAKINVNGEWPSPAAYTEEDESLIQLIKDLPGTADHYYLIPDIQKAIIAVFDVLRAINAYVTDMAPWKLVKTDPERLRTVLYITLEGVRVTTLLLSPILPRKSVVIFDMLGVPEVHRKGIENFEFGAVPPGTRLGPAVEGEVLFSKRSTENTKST

[7] = target: T4, Heat shock factor protein 1 (Mus musculus, UniProt P38532); assay: enhancement of HSF1-driven luciferase signal – cell-based, NIH3T3, luminescence, dose retest, confirmation (AID 435004); type: functional;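 also: stress induced by proteasome inhibitor MG132 added 30 min after compound; luciferase reporter driven by HSF1 response element in NIH3T3 cells; actives raise luminescence as potentiators of the MG132 stress response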
T4 sequence (P38532 whole entry): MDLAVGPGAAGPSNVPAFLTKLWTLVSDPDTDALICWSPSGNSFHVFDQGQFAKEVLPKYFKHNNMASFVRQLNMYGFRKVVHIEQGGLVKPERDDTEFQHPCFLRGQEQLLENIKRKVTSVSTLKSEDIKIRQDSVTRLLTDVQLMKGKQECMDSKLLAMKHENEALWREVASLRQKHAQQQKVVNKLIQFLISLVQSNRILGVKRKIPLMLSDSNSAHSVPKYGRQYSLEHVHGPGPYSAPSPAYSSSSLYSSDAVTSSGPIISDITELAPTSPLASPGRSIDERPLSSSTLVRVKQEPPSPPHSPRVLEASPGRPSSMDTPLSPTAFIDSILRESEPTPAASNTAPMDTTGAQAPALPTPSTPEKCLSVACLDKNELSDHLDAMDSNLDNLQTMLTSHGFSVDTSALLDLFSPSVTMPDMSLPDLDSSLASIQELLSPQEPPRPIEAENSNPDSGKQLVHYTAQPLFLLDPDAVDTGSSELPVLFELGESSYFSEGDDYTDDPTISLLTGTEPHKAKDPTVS

[8] = Counterscreen for inhibitors of Trypanosoma brucei methionyl tRNA synthetase (MetRS): Luminescence-based cell-based high throughput dose response assay to identify compounds that are cytotoxic to Jurkat human T lymphocyte cells.; type: functional
[9] = target: T3, Methionyl-tRNA synthetase, putative; type: functional, Trypanosoma brucei brucei strain 927/4 GUTat10.1; remark: listed apart in the source
[10] = target: T5, Short transient receptor potential channel 4 (Mus musculus, UniProt Q9QUQ5); assay: block of DAMGO-driven TRPC4 calcium entry – cell-based, HEK293 TRPC4/mu-opioid, Fluo-4 calcium, dose response (AID 434942); type: functional;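 also: potency of inhibitors blocking the TRPC4 calcium response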
T5 sequence (Q9QUQ5 whole entry): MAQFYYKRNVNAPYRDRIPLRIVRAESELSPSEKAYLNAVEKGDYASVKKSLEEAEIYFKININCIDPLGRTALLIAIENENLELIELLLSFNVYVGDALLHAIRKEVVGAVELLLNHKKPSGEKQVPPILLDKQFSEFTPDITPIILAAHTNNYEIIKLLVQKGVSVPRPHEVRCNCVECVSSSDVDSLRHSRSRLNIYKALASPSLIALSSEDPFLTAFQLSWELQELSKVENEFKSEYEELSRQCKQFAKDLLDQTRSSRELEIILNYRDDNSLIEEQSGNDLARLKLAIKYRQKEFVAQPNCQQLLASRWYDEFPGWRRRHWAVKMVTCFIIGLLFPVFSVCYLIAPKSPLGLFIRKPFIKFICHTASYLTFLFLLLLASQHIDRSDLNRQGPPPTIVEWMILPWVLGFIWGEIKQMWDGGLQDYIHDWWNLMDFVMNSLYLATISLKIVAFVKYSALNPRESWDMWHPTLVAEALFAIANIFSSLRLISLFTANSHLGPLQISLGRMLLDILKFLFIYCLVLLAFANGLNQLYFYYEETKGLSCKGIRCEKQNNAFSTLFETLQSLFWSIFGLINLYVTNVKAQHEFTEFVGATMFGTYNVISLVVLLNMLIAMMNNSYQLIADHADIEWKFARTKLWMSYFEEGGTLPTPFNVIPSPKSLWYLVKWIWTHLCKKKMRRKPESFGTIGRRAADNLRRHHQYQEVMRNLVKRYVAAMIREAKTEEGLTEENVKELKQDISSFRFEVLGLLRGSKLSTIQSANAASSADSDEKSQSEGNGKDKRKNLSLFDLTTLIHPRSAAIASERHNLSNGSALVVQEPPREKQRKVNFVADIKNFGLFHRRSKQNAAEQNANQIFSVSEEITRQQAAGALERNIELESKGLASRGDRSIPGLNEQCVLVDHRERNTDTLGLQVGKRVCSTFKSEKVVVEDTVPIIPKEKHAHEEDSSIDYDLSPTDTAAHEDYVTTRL

[11] = target: T6, DNA repair protein RAD52 homolog (Homo sapiens, UniProt P43351); type: functional, biochemical
T6 sequence (P43351 whole entry): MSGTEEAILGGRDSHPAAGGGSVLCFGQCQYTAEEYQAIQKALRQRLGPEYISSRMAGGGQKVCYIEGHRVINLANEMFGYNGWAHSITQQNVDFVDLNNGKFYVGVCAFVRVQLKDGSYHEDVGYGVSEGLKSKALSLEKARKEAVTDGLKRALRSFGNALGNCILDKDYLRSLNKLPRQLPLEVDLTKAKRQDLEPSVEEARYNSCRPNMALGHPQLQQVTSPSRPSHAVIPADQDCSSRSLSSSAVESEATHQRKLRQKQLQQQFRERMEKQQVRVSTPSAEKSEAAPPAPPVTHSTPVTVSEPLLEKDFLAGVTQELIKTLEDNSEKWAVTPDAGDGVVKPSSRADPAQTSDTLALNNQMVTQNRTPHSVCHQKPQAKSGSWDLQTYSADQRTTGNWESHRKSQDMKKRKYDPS

Cysteine protease ATG4B = target: T7, Cysteine protease ATG4B (Homo sapiens, UniProt Q9Y4P1); type: functional;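 also: Fluorescence-based dose-response confirmation assay measuring inhibition of ATG4B activity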
T7 sequence (Q9Y4P1 whole entry): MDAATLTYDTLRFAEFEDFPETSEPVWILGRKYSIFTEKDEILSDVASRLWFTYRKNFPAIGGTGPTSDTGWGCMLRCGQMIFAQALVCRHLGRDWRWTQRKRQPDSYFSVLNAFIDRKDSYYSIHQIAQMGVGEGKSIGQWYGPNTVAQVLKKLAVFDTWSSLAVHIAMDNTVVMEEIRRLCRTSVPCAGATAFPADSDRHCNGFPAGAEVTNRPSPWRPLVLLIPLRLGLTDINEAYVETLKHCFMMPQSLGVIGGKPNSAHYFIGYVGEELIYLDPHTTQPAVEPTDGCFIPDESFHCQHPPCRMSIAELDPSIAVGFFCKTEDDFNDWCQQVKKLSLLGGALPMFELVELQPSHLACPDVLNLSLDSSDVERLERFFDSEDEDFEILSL

Vero = assay: cells; type: functional; settings: Chlorocebus sabaeus
Phospholipase A2 = Phospholipase A2 (Homo sapiens, UniProt P04054); type: functional;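 also: confirmatory dose-response counterscreen on phospholipase A2, testing hits that came from an ultra-high-throughput screen for ATG4B inhibitors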
Chain of Phospholipase A2 (P04054 whole entry): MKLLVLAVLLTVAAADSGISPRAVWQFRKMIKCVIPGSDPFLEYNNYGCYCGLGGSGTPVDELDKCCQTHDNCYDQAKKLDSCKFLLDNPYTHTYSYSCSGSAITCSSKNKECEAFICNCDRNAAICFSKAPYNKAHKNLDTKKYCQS

[12] = target: 26S proteasome non-ATPase regulatory subunit 14 (Homo sapiens, UniProt O00487); assay: inhibition of proteasome subunit RPN11 – biochemical, fluorescence polarization, uHTS hits, confirmation (AID 602368); type: functional
Chain of 26S proteasome non-ATPase regulatory subunit 14 (O00487 whole entry): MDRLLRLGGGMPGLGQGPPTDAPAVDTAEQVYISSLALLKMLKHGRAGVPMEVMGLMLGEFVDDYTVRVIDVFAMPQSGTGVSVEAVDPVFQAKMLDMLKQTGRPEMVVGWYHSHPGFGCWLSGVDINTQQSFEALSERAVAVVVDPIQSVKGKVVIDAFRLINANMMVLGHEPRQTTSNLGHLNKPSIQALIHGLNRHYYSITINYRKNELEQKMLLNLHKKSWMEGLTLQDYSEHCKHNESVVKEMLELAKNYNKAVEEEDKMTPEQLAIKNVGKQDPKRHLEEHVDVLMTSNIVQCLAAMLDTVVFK

[13] = target: 72 kDa type IV collagenase (Homo sapiens, UniProt P08253); assay: Dose Response validation of uHTS RPN11 inhibitor hits using a MMP-2 Fluorescence assay.; type: functional
Chain of 72 kDa type IV collagenase (P08253 whole entry): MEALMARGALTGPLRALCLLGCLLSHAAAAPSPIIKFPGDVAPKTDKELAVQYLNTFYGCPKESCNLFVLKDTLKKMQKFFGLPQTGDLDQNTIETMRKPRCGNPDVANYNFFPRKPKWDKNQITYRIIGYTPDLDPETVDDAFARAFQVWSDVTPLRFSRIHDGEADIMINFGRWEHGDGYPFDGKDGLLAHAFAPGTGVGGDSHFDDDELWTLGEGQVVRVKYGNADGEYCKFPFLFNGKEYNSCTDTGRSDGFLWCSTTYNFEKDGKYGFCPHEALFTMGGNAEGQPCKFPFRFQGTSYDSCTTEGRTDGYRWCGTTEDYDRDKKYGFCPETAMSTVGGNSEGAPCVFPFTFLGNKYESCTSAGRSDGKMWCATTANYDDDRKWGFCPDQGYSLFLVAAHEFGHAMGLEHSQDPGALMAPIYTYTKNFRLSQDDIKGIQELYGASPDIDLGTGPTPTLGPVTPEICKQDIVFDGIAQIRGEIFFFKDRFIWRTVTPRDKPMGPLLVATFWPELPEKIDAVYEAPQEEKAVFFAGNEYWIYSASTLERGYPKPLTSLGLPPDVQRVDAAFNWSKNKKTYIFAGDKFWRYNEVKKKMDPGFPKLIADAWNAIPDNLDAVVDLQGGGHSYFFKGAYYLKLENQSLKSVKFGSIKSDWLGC

Prothrombin = Prothrombin (Bos taurus, UniProt P00735); assay: thrombin protease inhibitors – biochemical, fluorescence polarization, uHTS hits, dose response (AID 602369); type: functional

| SMILES | IC50 [1] | EC50 [2] | IC50 [3] | IC50 [6] | IC50 [8] | IC50 [9] | further results |
| --- | --- | --- | --- | --- | --- | --- | --- |
| CCOc1ccc(S(=O)(=O)n2ccc(C)n2)c2ccccc12 | 11.7 µM (active) | 21.2 µM (active) | < 0.368 µM (active) | – | – | – | – |
| Cc1ccc(-n2nc3c(c2NC(=O)/C=C\c2ccc4c(c2)OCO4)CSC3)c(C)c1 | – | – | – | – | – | – | IC50 [4]: 21.5 µM (active); IC50 [5]: 5.88 µM (active) |
| CCOC(=O)c1sc(NC(=O)Nc2ccccc2)cc1C | – | – | – | 4.39 µM (active) | 45 µM (inactive) | 43.9 µM (inactive) | EC50 [7]: > 260 µM (inconclusive) |
| CCc1ccc2nc(NC(=N)N)nc(C)c2c1 | – | – | – | – | – | – | EC50 [10]: 15 µM (active); AC50 [11]: 16.8 µM (active) |
| N#Cc1ccsc1NC(=O)c1cccc([N+](=O)[O-])c1 | > 20 µM (inactive) | 4.08 µM (active) | 3.12 µM (active) | – | – | – | – |
| Cc1ccc(S(=O)(=O)N2CCCCC2)cc1C(=O)N(CCc1ccccc1)Cc1ccccc1 | 19.3 µM (active) | > 53 µM (inactive) | 1.19 µM (active) | – | – | – | – |
| CCCCCCCCCCCCCCC(O)C[N+](C)(CCO)CCO (configuration not stated) | – | – | – | – | – | – | IC50 (Cysteine protease ATG4B): 8.23 µM (active); CC50 (Vero): 13.1 µM (active); IC50 (Phospholipase A2): 7.95 µM (active); IC50 [12]: 25.3 µM (active); IC50 [13]: 85 µM (active); AC50 [11]: 8.88 µM (active); IC50 (Prothrombin): 50 µM (active) |
| CCOc1ccccc1NS(=O)(=O)c1c(C)[nH]c(C)c1C(=O)N1CCCCC1 | – | – | – | 26.1 µM (inactive) | 83.3 µM (inactive) | 11.2 µM (inactive) | – |
| O=C(NCc1cc(Cl)cc(Cl)c1)c1csc(COCCO)n1 | – | – | – | 12.2 µM (inactive) | 83.3 µM (inactive) | 5.4 µM (active) | – |
| Nc1ccccc1C(=O)NNC(=O)/C(O)=C/C(=O)c1ccccc1 | – | – | – | – | – | – | IC50 [4]: 12 µM (active); IC50 [5]: 4.63 µM (active) |
